Test results reported in patent US20240293422A1, “SHP2 AND CDK4/6 INHIBITORS COMBINATION THERAPIES FOR THE TREATMENT OF CANCER” (Erasca, Inc., priority 2021, published 2024).

Assays:
[1] = test system: KRAS^G12S mutated A549 cells; experiment: Clonogenic assay (colony formation), A549; assay type: cell-based, human; details: for colony formation (in words): A549, 2000 cells per well, 14 days, crystal violet, various concentrations; for reduction of colony formation: A549, quantification FIG. 1B, each agent alone or combination, concentrations not given
Method: (§1) Cells and Reagents: The cell lines were obtained from ATCC (SW620 #CCL-227, A549 #CCL-185 and NCI-H441 #HTB-174). The cell lines, LS180 (ECACC #87021202) and Gp2D (ECACC #95090714). The cell line, CAL 27 was cultured in DMEM (Gibco #). SCC-4, SCC-15, SCC-25, SCC-9 cell lines were cultured in a 1:1 mixture of DMEM and Ham's F12 medium containing 1.2 g/L sodium bicarbonate, 2.5 mM L-glutamine, 15 mM HEPES and 0.5 mM sodium pyruvate supplemented with 400 ng/ml hydrocortisone, 90%; fetal bovine serum, 10% (Hyclone #SH-30071.03) and Penicillin/Streptomycin (Thermo Fisher #15070-063). The cells were maintained at 37° C./5% CO2.
(§2) Clonogenic assay: The cells were plated onto 6-well plates in 2 ml cell culture medium. The cells were incubated overnight and treated with various concentration of the compound of Formula I and Palbociclib. After 7 days incubation, the medium was replaced with fresh medium, cells were treated again with same concentration of the compound of Formula I and Palbociclib and incubated for additional 7 days. After 14 days of total incubation, the cells were washed with PBS twice and fixed 30 mins with 4% formaldehyde. The cells were washed twice with PBS and incubated with 0.1% crystal violet for 60 mins. After the crystal violet staining, the cells were washed five times with water and let it dry at room temperature. After the plates were dried, the crystal staining was de-stained with 1 ml of 10% acetic acid and absorbance was measured at 560 nm.
(§3) Cell lines from each of KRAS^G12D (LS513 and Gp2D), KRAS^G12S (A549) and KRAS^G12V (NCI-H441 and SW620) mutations were split onto 6-well plates in 2 ml cell culture medium. The cells were incubated overnight and treated with various concentration of the compound of Formula I and Palbociclib and assayed using the Clonogenic Assay protocol described above.
The A549 cells were split onto 6 well plates (2000 cells per well). After overnight incubation, the cells were treated with the compound of Formula I alone and treated in combination with palbociclib and colony formation was determined as mentioned in method. […] (FIG. 1A).

[2] = test system: KRAS^G12D mutated Gp2D cells; experiment: Clonogenic assay (colony formation), Gp2D; assay type: cell-based, human; details: for colony formation (in words): 8000 cells per well, 14 days, crystal violet, various concentrations
Method: as §1, §2, §3
(§4) The LS-180 and Gp2D cells were split onto 6 well plates (4000 and 8000 calls per well respectively). After overnight incubation, the cells were treated with the compound of Formula I alone and treated in combination with palbociclib and colony formation was determined as mentioned in method. […] (FIGS. 4A&5A). […] There was a pronounced inhibition of colony formation (about 50%) observed with combination of the compound of Formula I and palbocilib treatment. […] There was a pronounced inhibition of colony formation (about 50%) observed with combination of the compound of Formula I and palbocilib treatment.

[3] = test system: KRAS^G12V mutated SW620 cells; experiment: Clonogenic assay (colony formation), SW620; assay type: cell-based; details: for colony formation (in words): SW620, 4000 cells per well, 14 days, crystal violet, various concentrations
Method: as §1, §2, §3
(§5) The NCI-H441 and SW620 cells were split onto 6 well plates (8000 and 4000 calls per well respectively). After overnight incubation, the cells were treated with the compound of Formula I alone and treated in combination with palbociclib and colony formation was determined as mentioned in method. […] (FIGS. 2A&3A). […] There was a pronounced inhibition of colony formation (about 80%) observed with combination of the compound of Formula I and palbociclib treatment. […] There was a pronounced inhibition of colony formation (about 60%) observed with combination of the compound of Formula I and palbociclib treatment.

[4] = test system: KRAS^G12S mutant NSCLC xenograft model A549; experiment: Antitumor efficacy in A549 xenograft mouse model; assay type: in vivo, Female Balb/c nude mice; details: 28 days
Method: Reagents: The vehicle/control article, 100 mM acetic acid in deionized water, with pH adjustment to 4.8-5.0, was prepared and stored under ambient conditions throughout the 28-day administration in mice. The test article compound of Formula I was freshly prepared in vehicle of 100 mM acetic buffer weekly and stored under ambient conditions. The combination agent palbociclib was freshly prepared in vehicle of 50 mM Sodium Lactate Buffer, pH 3.8-4.0 weekly and stored at 2-8° C.
Animals: Female Balb/c nude mice were purchased from the Beijing Vital River Laboratory Animal Technology Co., Ltd. Mice were hosted at special pathogen-free (SPF) environment of vivarium facility and acclimated to their new environment for at least 3 days prior to initiation of any experiments. Mice were between 6-8 weeks of age at the time of implantation.
Preparation of xenograft model: A549 was a human lung cancer cell line that harbored a KRASG12S mutation. The A549 cell line was purchased from the American Type Culture Collection (ATCC® CCL-185™). A549 cells were cultured in medium containing RPMI1640 plus 10% Fetal Bovine Serum (FBS) at 37° C. in an atmosphere of 5% CO2 in air. The medium was renewed every 2 to 3 days and tumor cells were routinely sub-cultured at a confluence of 80-90% by trypsin-EDTA. The cells growing in an exponential growth phase were harvested and counted for inoculation.
A549 tumor cells were implanted into mice subcutaneously. Briefly, 200 μL cell suspensions containing 5×10^6 tumor cells mixed with 50% Matrigel were subcutaneously implanted into the right flank of mouse using a syringe. Animal health and tumor growth were monitored daily. Tumor volume was measured twice a week by caliper when tumors were palpable and measurable. When tumor volumes reached a mean of 200 mm^3 (range of 152-259 mm^3), tumor-bearing mice were randomized into different groups with 8 mice in each group. The randomization date was denoted as treatment day 0.
Treatment: Treatment started on the day of randomization. The treatment start day was denoted as treatment day 0. Mice were dosed by oral administration of vehicle control solution, the compound of Formula I at 10 mg/kg/dose BID, the compound of Formula I at 30 mg/kg QD, or palbociclib at 25 mg/kg QD monotherapy treatment groups. Two additional groups received combination treatment of the compound of Formula I and palbociclib, one dosing the compound of Formula I at 10 mg/kg/dose BID with palbociclib at 25 mg/kg QD and the other dosing the compound of Formula I at 30 mg/kg QD with palbociclib at 25 mg/kg QD. The dosing volume for each compound was 5 mL/kg and interval of BID regimen was 8 hours. Palbociclib was dosed at one-hour post the compound of Formula I QD or first BID dose in combination groups. […] Per this practice, mice in the compound of Formula I at 10 mg/kg/dose BID monotherapy group and in the compound of Formula I at 10 mg/kg/dose BID with palbociclib at 25 mg/kg QD combination group were supplied with DietGel food starting on treatment day 20 and continuing through the remaining study period. Mice in the compound of Formula I at 30 mg/kg QD monotherapy group were supplied with DietGel food starting on treatment day 17 and continuing through the remaining study period. The study was terminated on treatment day 28 as being defined in the study protocol.
Measurements and calculations: Conditions of animal health and clinical signs of toxicity were monitored daily. Subcutaneous tumor volumes and mouse body weights were measured twice a week by caliper and balance, respectively. Tumor volume, percent of tumor growth inhibition (% TGI), percent of tumor regression, percent of body weight change (% BWC), and treatment related body weight loss (% trBWL) were calculated based on following formulas: […]
Percent of tumor growth inhibition (% TGI) • vii.
[formula] • viii. TVTi was the group mean tumor volume (TV) of treatment group at last treatment day • ix. […]

[5] = Body weight change and tolerability in A549 xenograft study; assay type: in vivo, Female Balb/c nude mice; details: for treatment related body weight loss (trBWL) category: palbociclib 25 mg/kg QD, Formula I 10 mg/kg BID and 30 mg/kg QD, both combinations with palbociclib 25 mg/kg QD
Method: Treatment: Treatment started on the day of randomization. The treatment start day was denoted as treatment day 0. Mice were dosed by oral administration of vehicle control solution, the compound of Formula I at 10 mg/kg/dose BID, the compound of Formula I at 30 mg/kg QD, or palbociclib at 25 mg/kg QD monotherapy treatment groups. Two additional groups received combination treatment of the compound of Formula I and palbociclib, one dosing the compound of Formula I at 10 mg/kg/dose BID with palbociclib at 25 mg/kg QD and the other dosing the compound of Formula I at 30 mg/kg QD with palbociclib at 25 mg/kg QD. The dosing volume for each compound was 5 mL/kg and interval of BID regimen was 8 hours. Palbociclib was dosed at one-hour post the compound of Formula I QD or first BID dose in combination groups. […] The study was terminated on treatment day 28 as being defined in the study protocol.
Measurements and calculations: Conditions of animal health and clinical signs of toxicity were monitored daily. Subcutaneous tumor volumes and mouse body weights were measured twice a week by caliper and balance, respectively. Tumor volume, percent of tumor growth inhibition (% TGI), percent of tumor regression, percent of body weight change (% BWC), and treatment related body weight loss (% trBWL) were calculated based on following formulas:
[formula] [formula] [formula] • i. BWdx was body weight group mean at treatment day x • ii. BWd0 was body weight group mean at treatment day 0
Percentage of treatment related body weight loss at treatment day x (% trBWLdx) was calculated based on the following: • iii. If % BWC in the treatment group was positive at treatment day x: % trBWLdx=0% • iv. If % BWC was negative in both the control and treatment groups at treatment day • x:
Treatment related body weight loss (trBWL) was categorized based on the following criteria: x≤5% was no loss, 5%<x≤10% was mild loss, 10%<x≤20% was moderate loss and x>20% was severe loss.

[6] = test system: KRAS^G12D mutated LS-180 cells; experiment: Clonogenic assay (colony formation), LS-180; assay type: cell-based; details: for colony formation (in words): LS-180, 4000 cells per well, 14 days, crystal violet, various concentrations
Method: as §1, §2, §3, §4

[7] = test system: KRAS^G12V mutated NCI-H441 cells; experiment: Clonogenic assay (colony formation), NCI-H441; assay type: cell-based, human; details: for colony formation (in words): NCI-H441, 8000 cells per well, 14 days, crystal violet, various concentrations
Method: as §1, §2, §3, §5

CC(=O)c1c(C)c2cnc(Nc3ccc(N4CCNCC4)cn3)nc2n(C2CCCC2)c1=O [Palbociclib, reference compound]
colony formation (in words) [1]: inhibition of colony formation dose dependently | reduction of colony formation [1]: about 10% | colony formation (in words) [2]: inhibition of colony formation dose dependently | inhibition at 0.25 µM ([2]; Homo sapiens, palbociclib 250 nM alone, FIG. 5B): ~40% | inhibition at 0.1 µM ([3]; Homo sapiens, SW-620, SW620, palbociclib 100 nM alone, FIG. 3B): ~40% | colony formation (in words) [3]: inhibition of colony formation dose dependently | % TGI (last treatment day) ([4]; palbociclib 25 mg/kg QD oral): 15% | % Tumor regression (last treatment day) ([4]; palbociclib 25 mg/kg QD oral): 0% | maximum trBWL ([5]; 28 days oral, palbociclib 25 mg/kg QD monotherapy): 400 | treatment related body weight loss (trBWL) category ([5]; 28 days oral): no trBWL | inhibition at 0.25 µM ([6]; Homo sapiens, LS180, LS-180, palbociclib 250 nM alone, FIG. 4B): ~40% | colony formation (in words) [6]: inhibition of colony formation dose dependently | inhibition at 0.1 µM ([7]; Homo sapiens, NCI-H441, palbociclib 100 nM alone, FIG. 2B): ~60% | colony formation (in words) [7]: inhibition of colony formation dose dependently

COCOC[C@H]1C[C@H]2COc3c(Sc4cnc(N5CCC6(CC5)CO[C@@H](C)[C@H]6N)c(CO)n4)ccnc3N2C1 [compound of Formula I, (3-((3S,4S)-4-amino-3-methyl-2-oxa-8-azaspiro[4.5]decan-8-yl)-6-(((6aS,8S)-8-((methoxymethoxy)methyl)-6a,7,8,9-tetrahydro-6H-pyrido[3,2-b]pyrrolo[1,2-d] [1,4]oxazin-4-yl)thio)pyrazin-2-yl)methanol]
colony formation (in words) [1]: inhibited the colony formation minimally | reduction of colony formation [1]: about 10% | colony formation (in words) [2]: inhibited the colony formation minimally | colony formation (treatment showed about x% of colony formation) ([2]; Formula I 250 nM alone, FIG. 5B): about 20% | colony formation (in words) [3]: inhibited the colony formation minimally | colony formation (treatment showed about x% of colony formation) ([3]; SW620, Formula I 250 nM alone, FIG. 3B): about 10% | colony formation on increasing the concentration of Formula I ([3]; SW620, single agent and combination, FIG. 3B): robust inhibition of colony formation | % TGI (last treatment day) ([4]; Formula I 10 mg/kg BID oral): 52% | % Tumor regression (last treatment day) ([4]; Formula I 10 mg/kg BID oral): 0% | % TGI (last treatment day) ([4]; Formula I 30 mg/kg QD oral): 70% | % Tumor regression (last treatment day) ([4]; Formula I 30 mg/kg QD oral): 0% | clinical signs of toxicity or mortality ([5]; 28-day treatment period, both Formula I monotherapy groups and both combination groups): no clinical signs of toxicity or mortality were observed | treatment related body weight loss (trBWL) category ([5]; 28 days oral): mild trBWL | colony formation (in words) [6]: inhibited the colony formation minimally | colony formation (treatment showed about x% of colony formation) ([6]; LS-180, Formula I 250 nM alone, FIG. 4B): about 10% | colony formation (in words) [7]: inhibited the colony formation minimally | colony formation on increasing the concentration of Formula I ([7]; NCI-H441, FIG. 2B): robust inhibition of colony formation | colony formation (treatment showed about x% of colony formation) ([7]; NCI-H441, Formula I 250 nM alone, FIG. 2B): about 40%
